From PubChem BioAssay AID192 (DTP/NCI, 2004)
“And” between values parts separate entries of the source, which are not always exact repeats. Identical values can stand only once. Toxic doses and inconclusive results are not listed. How the source made its calls: active means survival T/C of 150% or more; inactive means T/C below 125% in these data.

Test system: BDF1 mice, B16 melanoma ip, median survival T/C
Experiment: NCI In Vivo Anticancer Drug Screen. Data for tumor model B16 Melanoma (intraperitoneal) in B6D2F1 (BDF1) mice
Conditions: endpoint: median survival time, higher = longer survival
In short: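 Compounds were tested in mice carrying transplantable tumors. Survival or tumor size was recorded, and each value is the treated-group measurement (T) divided by that of the vehicle-treated control group (C).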

[1] = dose: 100.0 mg/kg/injection, schedule: Q01DX009 (ip), vehicle: Klucel (hydroxypropylcellulose) (HPC)
[2] = dose: 100.0 mg/kg/injection, schedule: Q01DX009 (ip), vehicle: saline with Tween-80
[3] = dose: 200.0 mg/kg/injection, schedule: Q01DX009 (ip), vehicle: Klucel (hydroxypropylcellulose) (HPC)
[4] = dose: 200.0 mg/kg/injection, schedule: Q01DX009 (ip), vehicle: saline with Tween-80
[5] = dose: 400.0 mg/kg/injection, schedule: Q01DX009 (ip), vehicle: Klucel (hydroxypropylcellulose) (HPC)
[6] = dose: 12.5 mg/kg/injection, schedule: Q01DX009 (ip), vehicle: Klucel (hydroxypropylcellulose) (HPC)
[7] = dose: 25.0 mg/kg/injection, schedule: Q01DX009 (ip), vehicle: Klucel (hydroxypropylcellulose) (HPC)
[8] = dose: 50.0 mg/kg/injection, schedule: Q01DX009 (ip), vehicle: Klucel (hydroxypropylcellulose) (HPC)
[9] = dose: 50.0 mg/kg/injection, schedule: Q01DX009 (ip), vehicle: saline with Tween-80
[10] = dose: 100.0 mg/kg/injection, schedule: Q04DX003 (ip), vehicle: saline with Tween-80
[11] = dose: 200.0 mg/kg/injection, schedule: Q04DX003 (ip), vehicle: saline with Tween-80
[12] = dose: 400.0 mg/kg/injection, schedule: Q01DX009 (ip), vehicle: saline with Tween-80
[13] = dose: 100.0 mg/kg/injection, schedule: Q01DX009 (ip), vehicle: saline
[14] = dose: 200.0 mg/kg/injection, schedule: Q01DX009 (ip), vehicle: saline
[15] = dose: 100.0 mg/kg/injection, schedule: Q04DX003 (ip), vehicle: Klucel (hydroxypropylcellulose) (HPC)
[16] = dose: 200.0 mg/kg/injection, schedule: Q04DX003 (ip), vehicle: Klucel (hydroxypropylcellulose) (HPC)
[17] = dose: 400.0 mg/kg/injection, schedule: Q04DX003 (ip), vehicle: Klucel (hydroxypropylcellulose) (HPC)
[18] = dose: 12.5 mg/kg/injection, schedule: Q04DX003 (ip), vehicle: Klucel (hydroxypropylcellulose) (HPC)
[19] = dose: 25.0 mg/kg/injection, schedule: Q04DX003 (ip), vehicle: Klucel (hydroxypropylcellulose) (HPC)
[20] = dose: 50.0 mg/kg/injection, schedule: Q04DX003 (ip), vehicle: Klucel (hydroxypropylcellulose) (HPC)

Measured: T/C

CC1OC(O[C@H]2/C=C/C=C/C=C/C=C/C=C/C=C/C=C/[C@H](C)[C@@H](O)[C@@H](C)[C@H](C)OC(=O)C[C@H](O)C[C@H](O)CC[C@@H](O)[C@H](O)C[C@H](O)C[C@]3(O)C[C@H](O)[C@@H](C(=O)O)[C@H](C2)O3)C(O)C(N)C1O (some centres not stated)
inactive: dose: 1.0 mg/kg/injection, schedule: Q01DX009 (ip), vehicle: saline 102 % of control and 124 % of control | dose: 2.0 mg/kg/injection, schedule: Q01DX009 (ip), vehicle: saline 106 % of control and 113 % of control | dose: 4.0 mg/kg/injection, schedule: Q01DX009 (ip), vehicle: saline 97 % of control and 116 % of control | dose: 8.0 mg/kg/injection, schedule: Q01DX009 (ip), vehicle: saline 92 % of control and 102 % of control | dose: 16.0 mg/kg/injection, schedule: Q01DX009 (ip), vehicle: saline 88 % of control and 98 % of control

COc1ccc(NC(=S)Nc2ccccn2)cc1
inactive: [1] 107 % of control | [2] 100 % of control | [3] 100 % of control | [4] 100 % of control | [5] 92 % of control

CCCCNC(C)(C)C1(c2ccc(Cl)cc2)SSC(c2ccc(Cl)cc2)(C(C)(C)NCCCC)SS1 (configuration not stated)
inactive: dose: 10.0 mg/kg/injection, schedule: Q01DX009 (ip), vehicle: Klucel (hydroxypropylcellulose) (HPC) 94 % of control | dose: 20.0 mg/kg/injection, schedule: Q01DX009 (ip), vehicle: Klucel (hydroxypropylcellulose) (HPC) 89 % of control | dose: 40.0 mg/kg/injection, schedule: Q01DX009 (ip), vehicle: Klucel (hydroxypropylcellulose) (HPC) 86 % of control

O=C1N(Cl)C(=O)C(c2ccc(Cl)cc2)(c2ccc(Cl)cc2)N1Cl
inactive: dose: 1.56 mg/kg/injection, schedule: Q01DX009 (ip), vehicle: Klucel (hydroxypropylcellulose) (HPC) 104 % of control | dose: 3.12 mg/kg/injection, schedule: Q01DX009 (ip), vehicle: Klucel (hydroxypropylcellulose) (HPC) 96 % of control | dose: 6.25 mg/kg/injection, schedule: Q01DX009 (ip), vehicle: Klucel (hydroxypropylcellulose) (HPC) 104 % of control | [6] 104 % of control | [7] 114 % of control and 101 % of control | dose: 25.0 mg/kg/injection, schedule: Q02DX009 (ip), vehicle: Klucel (hydroxypropylcellulose) (HPC) 103 % of control | [8] 112 % of control | dose: 50.0 mg/kg/injection, schedule: Q02DX009 (ip), vehicle: Klucel (hydroxypropylcellulose) (HPC) 99 % of control | [1] 118 % of control | dose: 100.0 mg/kg/injection, schedule: Q02DX009 (ip), vehicle: Klucel (hydroxypropylcellulose) (HPC) 106 % of control | [3] 117 % of control | dose: 200.0 mg/kg/injection, schedule: Q02DX009 (ip), vehicle: Klucel (hydroxypropylcellulose) (HPC) 96 % of control | [5] 118 % of control

CCCCCCCCCC1(C)OCC(COC(N)=O)O1 (configuration not stated)
inactive: [7] 90 % of control | [8] 90 % of control | [1] 92 % of control | [3] 95 % of control | [5] 95 % of control

COc1ccc(CCN2C(=O)CSC2=S)cc1OC
inactive: [7] 100 % of control | [8] 88 % of control | [9] 94 % of control and 98 % of control | [1] 89 % of control and 94 % of control | [2] 104 % of control | [10] 89 % of control | [4] 90 % of control and 94 % of control | [11] 94 % of control

NC(CCSCc1ccccc1)C(=O)O (configuration not stated)
inactive: [2] 105 % of control | [4] 96 % of control | [12] 87 % of control

CC(=O)NSCC(NC(=O)OC(C)(C)C)C(=O)O (configuration not stated)
inactive: dose: 50.0 mg/kg/injection, schedule: Q01DX009 (ip), vehicle: saline 100 % of control | [13] 101 % of control | [14] 96 % of control

O=C1CC(c2ccc(O)cc2)CC(=O)C1C(C1CC=CCC1)N(CCCl)CCCl (configuration not stated)
inactive: [7] 88 % of control | [8] 95 % of control | [1] 90 % of control | [3] 92 % of control | [5] 97 % of control

CCC(=O)c1ccccc1NC(C)=O
inactive: [1] 102 % of control | [3] 98 % of control | [5] 97 % of control

CCOC(=O)C1CN(S(=O)(=O)c2ccc(C)cc2)c2ccccc2C(=O)C1/C(=C/C(=O)OC)C(=O)OC (configuration not stated)
inactive: [15] 92 % of control | [16] 90 % of control | [17] 88 % of control

CC12CC(C(=O)O)C3(O)CC(C)(C1)CC(C)(C2)C3 (configuration not stated) (tested in a mixture with another compound)
inactive: [6] 97 % of control and 101 % of control | [7] 93 % of control and 107 % of control | [8] 94 % of control and 96 % of control | [1] 96 % of control and 103 % of control | [3] 94 % of control and 98 % of control

c1ccc2c(c1)OCCOCCOc1ccccc1OCCOCCO2
inactive: [18] 93 % of control | [19] 88 % of control | [20] 86 % of control

Cc1cc(O)c(N=Nc2ccc(C(=O)O)cc2)cc1C
inactive: dose: 12.5 mg/kg/injection, schedule: Q01DX009 (ip), vehicle: suspension in saline 109 % of control | dose: 25.0 mg/kg/injection, schedule: Q01DX009 (ip), vehicle: suspension in saline 106 % of control | dose: 50.0 mg/kg/injection, schedule: Q01DX009 (ip), vehicle: suspension in saline 109 % of control | dose: 100.0 mg/kg/injection, schedule: Q01DX009 (ip), vehicle: suspension in saline 90 % of control | dose: 200.0 mg/kg/injection, schedule: Q01DX009 (ip), vehicle: suspension in saline 87 % of control

COc1cc2ccc(C(C)N)cc2cc1OC (configuration not stated)
inactive: [13] 97 % of control | [14] 95 % of control

Oc1ccccc1N=Cc1ccc(C=Nc2ccccc2O)cc1
inactive: dose: 133.0 mg/kg/injection, schedule: Q01DX009 (ip), vehicle: gum acacia 88 % of control | dose: 200.0 mg/kg/injection, schedule: Q01DX009 (ip), vehicle: gum acacia 99 % of control

CC(=O)N/C(=C/c1ccccc1)C(=O)O
inactive: [1] 94 % of control | [15] 93 % of control | [3] 108 % of control | [16] 86 % of control | [5] 97 % of control | [17] 90 % of control

O=C1C(=O)c2cccc3cccc1c23
inactive: dose: 12.5 mg/kg/injection, schedule: Q01DX009 (ip), vehicle: saline 88 % of control | dose: 25.0 mg/kg/injection, schedule: Q01DX009 (ip), vehicle: saline 94 % of control

O=C(COc1ccccc1)CC(O)(C(F)(F)F)C(F)(F)F
inactive: [10] 100 % of control | [11] 92 % of control | dose: 400.0 mg/kg/injection, schedule: Q04DX003 (ip), vehicle: saline with Tween-80 97 % of control

C=CCCCC[P+](c1ccccc1)(c1ccccc1)c1ccccc1
inactive: dose: 1.5 mg/kg/injection, schedule: Q01DX009 (ip), vehicle: saline 102 % of control | dose: 3.0 mg/kg/injection, schedule: Q01DX009 (ip), vehicle: saline 92 % of control

Cc1cccc(CN2CCN(C(c3ccccc3)c3ccc(Cl)cc3)CC2)c1 (configuration not stated)
inactive: dose: 3.12 mg/kg/injection, schedule: Q04DX003 (ip), vehicle: Klucel (hydroxypropylcellulose) (HPC) 97 % of control | dose: 6.25 mg/kg/injection, schedule: Q04DX003 (ip), vehicle: Klucel (hydroxypropylcellulose) (HPC) 101 % of control | [6] 86 % of control | [18] 96 % of control | [7] 86 % of control | [19] 96 % of control | [8] 86 % of control | [20] 89 % of control | [15] 88 % of control

O=C(COc1ccc(Cl)cc1)Nc1ccc(Cl)cc1
inactive: dose: 25.0 mg/kg/injection, schedule: Q01DX009 (ip), vehicle: saline with Tween-80 90 % of control | [9] 92 % of control | [2] 92 % of control

CC(C(=O)O)C(NC(=O)OCc1ccccc1)C(=O)O (configuration not stated)
inactive: dose: 100.0 mg/kg/injection, schedule: Q04DX003 (ip), vehicle: other 97 % of control | dose: 200.0 mg/kg/injection, schedule: Q04DX003 (ip), vehicle: other 89 % of control

CC(C)CC(NC(=O)OCc1ccccc1)C(=O)NC(Cc1c[nH]c2ccccc12)C(=O)O (configuration not stated)
inactive: [9] 90 % of control | [2] 96 % of control | [4] 96 % of control | [12] 98 % of control

CC(=O)CC(=O)NCc1cccc(C)n1
inactive: [13] 106 % of control | [14] 111 % of control | dose: 400.0 mg/kg/injection, schedule: Q01DX009 (ip), vehicle: saline 112 % of control
